According to ChEMBL document CHEMBL5370659 (J Med Chem, 2023):
The source made the active and inactive calls. No cut-off for these calls is given here.

How the values were obtained:
[1] = Brain homogenate binding in rat; type: ADME, tissue-based
[2] = target: T1, Tryptophan 5-hydroxylase 1 (Homo sapiens, UniProt P17752); assay: Binding affinity to […] (unknown origin) assessed as equilibrium dissociation constant by surface plasmon resonance analysis
T1 sequence (P17752 whole entry): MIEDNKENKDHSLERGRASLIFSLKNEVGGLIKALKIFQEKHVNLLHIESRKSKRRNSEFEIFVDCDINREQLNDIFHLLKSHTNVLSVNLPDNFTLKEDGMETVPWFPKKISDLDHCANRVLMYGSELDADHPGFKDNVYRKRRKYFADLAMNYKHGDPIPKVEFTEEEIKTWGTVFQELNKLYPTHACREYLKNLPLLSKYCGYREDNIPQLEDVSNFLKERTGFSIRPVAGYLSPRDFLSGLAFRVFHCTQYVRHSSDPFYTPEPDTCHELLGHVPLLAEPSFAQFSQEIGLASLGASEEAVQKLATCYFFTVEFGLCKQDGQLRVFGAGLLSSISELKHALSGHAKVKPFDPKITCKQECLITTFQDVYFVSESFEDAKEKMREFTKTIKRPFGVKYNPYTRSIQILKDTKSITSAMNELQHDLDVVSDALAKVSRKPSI

Cytochrome P450 2D6 = Cytochrome P450 2D6 (Homo sapiens, UniProt P10635); assay: Inhibition of CYP2D6 in human liver microsome using dextromethorphan as substrate measured upto 50 uM incubated for 10 mins followed by NADPH addition incubated for 10 mins by LC/MS/MS analysis; type: ADME; settings: microsomes, 20 min
Chain of Cytochrome P450 2D6 (P10635 whole entry): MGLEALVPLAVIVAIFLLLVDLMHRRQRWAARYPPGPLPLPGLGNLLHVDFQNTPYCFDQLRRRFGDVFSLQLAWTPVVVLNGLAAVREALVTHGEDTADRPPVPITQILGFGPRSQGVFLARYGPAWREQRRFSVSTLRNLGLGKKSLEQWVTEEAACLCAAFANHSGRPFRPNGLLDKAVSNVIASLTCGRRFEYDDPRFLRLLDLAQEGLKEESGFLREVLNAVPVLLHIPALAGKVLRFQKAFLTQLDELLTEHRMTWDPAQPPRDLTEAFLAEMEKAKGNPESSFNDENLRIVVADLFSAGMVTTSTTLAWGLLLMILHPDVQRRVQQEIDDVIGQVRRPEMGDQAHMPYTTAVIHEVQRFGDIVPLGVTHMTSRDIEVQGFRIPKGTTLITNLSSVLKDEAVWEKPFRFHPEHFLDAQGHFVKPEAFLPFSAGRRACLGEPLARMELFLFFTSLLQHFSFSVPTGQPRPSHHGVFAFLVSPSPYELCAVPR

[3] = target: Voltage-gated inwardly rectifying potassium channel KCNH2 (Homo sapiens, UniProt Q12809); assay: Inhibition of hERG channel expressed in CHO cells by whole-cell patch clamp assay; type: toxicity, cell-based
Chain of Voltage-gated inwardly rectifying potassium channel KCNH2 (Q12809 whole entry): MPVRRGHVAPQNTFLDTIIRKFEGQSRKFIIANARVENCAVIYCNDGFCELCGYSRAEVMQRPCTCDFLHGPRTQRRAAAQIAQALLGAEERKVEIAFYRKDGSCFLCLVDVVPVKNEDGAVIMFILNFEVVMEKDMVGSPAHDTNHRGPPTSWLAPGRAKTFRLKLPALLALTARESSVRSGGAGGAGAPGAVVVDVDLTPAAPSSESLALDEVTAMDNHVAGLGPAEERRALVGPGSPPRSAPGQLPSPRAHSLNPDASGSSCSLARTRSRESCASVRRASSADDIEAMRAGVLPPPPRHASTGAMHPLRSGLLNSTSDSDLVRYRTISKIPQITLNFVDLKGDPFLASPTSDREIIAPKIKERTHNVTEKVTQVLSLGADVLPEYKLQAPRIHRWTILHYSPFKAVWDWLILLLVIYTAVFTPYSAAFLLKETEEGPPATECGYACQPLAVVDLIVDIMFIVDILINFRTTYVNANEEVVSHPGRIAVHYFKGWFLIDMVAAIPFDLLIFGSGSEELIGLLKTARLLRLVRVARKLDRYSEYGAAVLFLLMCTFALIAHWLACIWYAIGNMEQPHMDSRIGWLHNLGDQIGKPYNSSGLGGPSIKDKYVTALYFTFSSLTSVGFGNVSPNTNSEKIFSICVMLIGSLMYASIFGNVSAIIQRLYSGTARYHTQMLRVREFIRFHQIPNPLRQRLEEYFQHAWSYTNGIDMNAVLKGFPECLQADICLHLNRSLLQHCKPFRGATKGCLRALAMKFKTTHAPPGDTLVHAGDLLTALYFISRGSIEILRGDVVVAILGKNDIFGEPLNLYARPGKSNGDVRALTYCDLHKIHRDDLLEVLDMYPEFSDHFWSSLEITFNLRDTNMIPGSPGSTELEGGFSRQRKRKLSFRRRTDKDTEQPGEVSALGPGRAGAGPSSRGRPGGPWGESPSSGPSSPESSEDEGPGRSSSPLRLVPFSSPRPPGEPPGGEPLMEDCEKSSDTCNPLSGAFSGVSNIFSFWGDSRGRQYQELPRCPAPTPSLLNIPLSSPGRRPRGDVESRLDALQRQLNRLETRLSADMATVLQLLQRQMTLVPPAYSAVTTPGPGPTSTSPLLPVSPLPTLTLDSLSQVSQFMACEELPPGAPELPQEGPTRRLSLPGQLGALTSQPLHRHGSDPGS

[4] = AUC (0 to last) in CD-1 (ICR) mouse at 50 mg/kg, po measured upto 1440 mins by LC-MS/MS analysis; type: ADME, organism-based; design: time < 1440 min, dose 50 mg/kg, route po; settings: in vivo
[5] = AUCExtra in CD-1 (ICR) mouse at 50 mg/kg, po measured upto 1440 mins by LC-MS/MS analysis; type: ADME, organism-based; settings: in vivo, 24 h
[6] = AUMCExtra in CD-1 (ICR) mouse at 50 mg/kg, po measured upto 1440 mins by LC-MS/MS analysis; type: ADME, organism-based; settings: in vivo, 24 h
[7] = Plasma concentration in CD-1 (ICR) mouse at 50 mg/kg measured 2 hrs by LC-MS/MS analysis; type: ADME, organism-based
[8] = Drug uptake in CD-1 (ICR) mouse lung at 50 mg/kg measured 0.5 hrs by LC-MS/MS analysis; type: ADME, organism-based; settings: read-out: Drug uptake
[9] = Drug uptake in CD-1 (ICR) mouse lung at 50 mg/kg measured 2 hrs by LC-MS/MS analysis; type: ADME, organism-based; settings: read-out: Drug uptake
[10] = Drug uptake in CD-1 (ICR) mouse brain at 50 mg/kg measured 2 hrs by LC-MS/MS analysis; type: ADME, organism-based; settings: read-out: Drug uptake
[11] = Initial drug concentration in Sprague-Dawley rat at 10 mg/kg, iv measured upto 1440 mins by LC-MS/MS analysis; type: ADME, organism-based; settings: in vivo
[12] = Half life in Sprague-Dawley rat at 10 mg/kg, iv measured upto 1440 mins by LC-MS/MS analysis; type: ADME, organism-based; settings: in vivo
[13] = Volume of distribution at steady state in Sprague-Dawley rat at 10 mg/kg, iv measured upto 1440 mins by LC-MS/MS analysis; type: ADME, organism-based; settings: in vivo, read-out: Vdss
[14] = AUMCExtra in Sprague-Dawley rat at 10 mg/kg, iv measured upto 1440 mins by LC-MS/MS analysis; type: ADME, organism-based; settings: in vivo, 24 h
[15] = Half life in Sprague-Dawley rat at 50 mg/kg, po measured upto 1440 mins by LC-MS/MS analysis; type: ADME, organism-based; settings: in vivo
[16] = AUC (0 to last) in Sprague-Dawley rat at 50 mg/kg, po measured upto 1440 mins by LC-MS/MS analysis; type: ADME, organism-based; design: dose 50 mg/kg, time < 1440 min, route po; settings: in vivo
[17] = AUCExtra in Sprague-Dawley rat at 50 mg/kg, po measured upto 1440 mins by LC-MS/MS analysis; type: ADME, organism-based; settings: in vivo, 24 h
[18] = Drug uptake in Sprague-Dawley rat brain at 50 mg/kg, po measured at 0.5 hrs by LC-MS/MS analysis; type: ADME, organism-based; settings: read-out: Drug uptake
[19] = Drug uptake in Sprague-Dawley rat brain at 20 mg/kg, po measured at 2 hrs by LC-MS/MS analysis; type: ADME, organism-based; settings: in vivo, BLD = below limit of detection
[20] = Toxicity in C57BL/6N mouse assessed as behavioral changes at 1.5 to 50 mg/kg, po bid treated for 6 to 7 days; type: organism-based; settings: in vivo, dose lower 1.5 mg/kg, time lower 6 day, dose upper 50 mg/kg, time upper 7 day
Mus musculus [21] = assay: Effect on time spent in central zone of C57BL/6N mouse at 20 mg/kg, po treated for 14 days by locomotor activity test; type: functional, organism-based; settings: time 14.0 day
Mus musculus [22] = assay: Effect on hedonic component behavior in C57BL/6N mouse at 10 mg/kg, po treated for 14 days by sucrose preference test; type: functional, organism-based; settings: time 14.0 day
MC-38 = assay: Antitumor activity against mouse MC-38 cells subcutaneously transplanted in C57BL/6N mouse assessed as reduction in absolute tumor volume at 50 mg/kg, po bid measured on day 13 relative to control; type: functional; settings: MC-38, 312 h, route sc, time 13 day
[23] = Toxicity in C57BL/6N mouse subcutaneously transplanted with mouse MC-38 cells assessed as general toxic effects at 50 mg/kg, po bid measured on day 20; type: organism-based; settings: in vivo, sc, 480 h, time 20 day

Activity [1]: 70%
Kd [2]: 3.2 nM
inhibition (INH) (Cytochrome P450 2D6): Not Active
AUC(0-t) at 24 h [4]: 8540 ng·h/mL
%AUCextra [5]: 0.552%
AUMC [6]: 4.85%
concentration at 2 h [7]: 1610 ng/mL
concentration at 0.5 h [8]: 1720 ng/g
concentration at 2 h [9]: 168 ng/g
concentration at 2 h [10]: 46 ng/g
C0 at 24 h [11]: 16300 ng/mL
half-life [12]: 3.39 h
Vd [13]: 1.4 L/kg
AUMC [14]: 13.6%
half-life [15]: 3.41 h
AUC(0-t) at 24 h [16]: 8180 ng·h/mL
%AUCextra [17]: 0.44%
concentration at 0.5 h [18]: 43 ng/g
Drug uptake [19]: Bld
SMILES: CCn1c(=O)[nH]c(=O)c2c1nc(Cc1cn3cc(C)sc3n1)n2CC1COC1
IC50 [3]: > 30000 nM
Activity [20]: Non-Toxic
Activity (Mus musculus [21]): inactive
Activity (Mus musculus [22]): inactive
inhibition in vivo at 50 mg/kg (MC-38): 50%
Activity [23]: Non-Toxic
